{
  "source": "patent US8623904B2",
  "about": "“Use of tetramic acid derivatives for controlling pests by watering or droplet application” (Bayer CropScience AG, priority 2007, dated 2014)",
  "key": {"Oidium Iycopersicum": {"tested_on": "Oidium Iycopersicum", "assay": "Drench application to tomato plants on rock wool, infection with powdery mildew Oidium Iycopersicum, efficacy by Abbott formula", "format": "in vivo", "conditions": "40 mg of active compound/plant, 240 SC, watered 100 ml; for Efficacy (% Abbott) against Oidium Iycopersicum 14 d: 14 d after infection; for Efficacy (% Abbott) against Oidium Iycopersicum 23 d: 23 d after infection; for Efficacy (% Abbott) against Oidium Iycopersicum 28 d new growth / Efficacy (% Abbott) against Oidium Iycopersicum 28 d old leaves: 28 d after infection", "experimental": "In each case three tomato plants of the cultivar “Hoffmanns Rendita” on rock wool are, in two replications, watered one week after transplantation with in each case 100 ml of active compound solution comprising the active compound (II) (formulation: 240 SC) at the stated application rate. The greenhouse temperature is 20° C. during the day and 17° C. at night. Infection with the powdery mildew Oidium Iycopersicum is in each case carried out two and seven days after the active compound application. Evaluation is in each case carried out 14, 23, 28, 35 days after the respective infection by determining the efficacy on the old leaves and the new growth using the Abbott formula*.\n(§1) Calculation of the efficacy according to Abbott:\n(§2) [formula] where X=value for the control and Y=value for the compound tested"}, "Leveillula taurica": {"tested_on": "Leveillula taurica", "assay": "Drench application to bell pepper plants, natural infection with Leveillula taurica, efficacy by Abbott formula", "format": "in vivo", "conditions": "240 SC, watered 50 ml, bell pepper \"Shishitou aoi\", 21 days after treatment", "experimental": "8 plots each 2.25 m^2 in size with bell pepper plants of the cultivar “Shishitou aoi” are, in two replications, watered with 50 ml of an active compound solution comprising the active compound (II) (formulation: 240 SC) at the stated application rate. Following a severe natural infection with Leveillula taurica, evaluation is carried out 21 days after the treatment by determining the efficacy using the Abbott formula*.\nas §1, §2"}},
  "data": [
    {"smiles": "CCOC(=O)OC1=C(c2cc(C)ccc2C)C(=O)N[C@]12CC[C@@H](OC)CC2", "note": "[Active compound (II)]", "values": [
      {"measurement": "Efficacy (% Abbott) against Oidium Iycopersicum 14 d", "setting": "Oidium Iycopersicum; 2 d prior to infection", "value": 33, "unit": "% Abbott"},
      {"measurement": "Efficacy (% Abbott) against Oidium Iycopersicum 23 d", "setting": "Oidium Iycopersicum; 2 d prior to infection", "value": 40, "unit": "% Abbott"},
      {"measurement": "Efficacy (% Abbott) against Oidium Iycopersicum 28 d new growth", "setting": "Oidium Iycopersicum; 2 d prior to infection", "value": 65, "unit": "% Abbott"},
      {"measurement": "Efficacy (% Abbott) against Oidium Iycopersicum 28 d old leaves", "setting": "Oidium Iycopersicum; 2 d prior to infection", "value": 41, "unit": "% Abbott"},
      {"measurement": "Efficacy (% Abbott) against Oidium Iycopersicum 14 d", "setting": "Oidium Iycopersicum; 7 d prior to infection", "value": 45, "unit": "% Abbott"},
      {"measurement": "Efficacy (% Abbott) against Oidium Iycopersicum 23 d", "setting": "Oidium Iycopersicum; 7 d prior to infection", "value": 45, "unit": "% Abbott"},
      {"measurement": "Efficacy (% Abbott) against Oidium Iycopersicum 28 d new growth", "setting": "Oidium Iycopersicum; 7 d prior to infection", "value": 77, "unit": "% Abbott"},
      {"measurement": "Efficacy (% Abbott) against Oidium Iycopersicum 28 d old leaves", "setting": "Oidium Iycopersicum; 7 d prior to infection", "value": 45, "unit": "% Abbott"},
      {"measurement": "Efficacy (% Abbott) against Leveillula taurica 21 d", "setting": "Leveillula taurica; 40 mg of active compound/plant", "value": 87.4, "unit": "% Abbott"},
      {"measurement": "Efficacy (% Abbott) against Leveillula taurica 21 d", "setting": "Leveillula taurica; 60 mg of active compound/plant", "value": 100, "unit": "% Abbott"},
      {"measurement": "Efficacy (% Abbott) against Leveillula taurica 21 d", "setting": "Leveillula taurica; 80 mg of active compound/plant", "value": 100, "unit": "% Abbott"}
    ]}
  ]
}
